Measured values from patent US12208080B2, “Compositions and methods for modulation of extracellular vesicle release and treatment of neurological disorders” (GEORGE MASON RESEARCH FOUNDATION, INC., priority 2018, dated 2025).

Key:
[1] = test system: HIV-1 89.6 infected 3D neurospheres; assay: RT-qPCR of viral RNA transcripts in infected 3D neurospheres; assay type: cell-based
Protocol: FIGS. 22A-22D are graphs, gels, schematics, and images showing cannabidiol lowers viral transcripts in 3D neurospheres. A) Differential workflow of 3D neurospheres. B) Phase contrast microscopic images of three 3D neurospheres taken where scale bar=100 um. D) 3D neurospheres were treated±89.6 viral strain±cART (10 μM; Tenofovir, Emtricitabine, Lamuvidine, and Indinavir)±CBD titration (5 and 10 μM) and incubated for 7 days. RNA was isolated from the 3D neurospheres and supernatants, followed by RT-qPCR analysis for viral RNA transcripts TAR, TAR-gag, env. Student's t-test was used for statistical analysis, where *p-value≤0.05; **p-value≤0.01, ***p-value≤0.001.
Neural Progenitor Cells (NPCs; Cat: ACS-5003; ATCC) were grown using STEMdiff™ Neural Progenitor Medium (STEMCELL Technologies™) and differentiated into 3D neurospheres (1×10^5 cells/well) using DMEM:F12 (Cat: 30-2006; ATCC)+Neural Progenitor Cell Dopaminergic Differentiation Kit (Cat: ACS-3004; ATCC) for an incubation period of 14 d. Inverted microscopy using Zen imaging software (Zeiss) was used to develop phase contrast images. Neurospheres were infected with HIV-1 89.6 dual-tropic strain (MOI: 10) and 10 μL of Infectin™ (Virongy, LLC) with a total volume of 200 μL, followed by 48 h incubation period. Neurospheres were then gently washed with 1×PBS±treated twice with 10 μM cocktail (Lamivudine, Tenofovir, Emtricitabine, Indinavir)±treatment (every other day) with a titration of CBD (5 and 10 μM) for a seven-day incubation period. Neurospheres were lysed in 100 μL lysis buffer and total lysates were run on a 4-20% Tris-Glycine SDS-PAGE, followed by western blot assessment. For RT-qPCR analysis, RNA was isolated from neurospheres, followed by RT-qPCR analysis.
Next, the levels of intracellular viral RNA transcripts were assessed to determine the effects of CBD treatment on HIV-1 infected neurospheres. Prior to these experiments, the expression of relevant receptors in neurospheres were confirmed including Cannabinoid receptors CB1 and CB2, as well as the serotonin receptor 5-HT1A and the Vanilloid receptor which have been previously found to bind cannabinoids (FIG. 24). We then performed RT-qPCR analysis to quantify the expression of TAR, gag, and env.

[2] = test system: HIV-1 infected monocytes (U1); assay: Western blot/densitometry of intracellular viral and ESCRT proteins in U1 cells; assay type: cell-based
Protocol: FIGS. 15A-15C are graphs and gels showing cannabidiols lower intracellular viral transcription and downstream viral products. U1 cells (1×10^6) were treated with a titration of CBD (1, 5, 10 μM) and THC (1, 5, 10 μg/mL) every day for 5 days. A) Intracellular RNA was isolated and analyzed through RT-qPCR for HIV-1 viral transcripts TAR and env. Each bar represents an average of three independent replicates. B) U1 cells (2×10^6) were treated with a titration of CBD (1, 5, 10 μM) every day for 5 days. Cells pellets were lysed, run through SDS-PAGE, and western blotted for (p-)/NF-κB, autophagosomal markers (p63, LC3), EV biogenesis marker VPS4, viral markers (gp120, Nef, p24), and Actin. C) U1 cells (5×10^6) were treated±CBD (10 μM) and Flavopiridol hydrochloride (50 nM; indicated as Flavo) and incubated for the following time points: 0 minutes, 2 hours and 6 hours. Cells were cross-linked with 1% formaldehyde solution and ChIP-ed for IgG and Pol II. ChIP DNA samples were analyzed via qPCR for TAR and env. Student's t-test was used for statistical analysis, where *p-value≤0.05; **p-value≤0.01, ***p-value≤0.001.
FIGS. 16A-16E are graphs showing normalized densitometry analysis of CBD lowering intracellular […] in HIV-1 infected monocytes. (A) Nef, (B) Pr55, (C) p24, (D) VPS4, and (E) CHMP6 densitometry counts were performed on the Western blot data from FIG. 4B, all of which were normalized to Actin levels.
Laemmli buffer was added to sample cell lysates (10-20 μg) or NT80/82 pellets. Lysates were heated at 95° C. for 3 min and 15 μL of sample was loaded onto a 4-20% Tris/glycine gel (Invitrogen). When analyzing NT80/82 pellets, samples were heated at 95° C. for 3 min, vortexed, and then heated two additional times to release captured material from NT80/82 beads. Following the release of captured cargo, the total sample was then loaded on to a 4-20% Tris-Glycine gel (Invitrogen). Gels were run at 100 V and transferred onto Immobilon PVDF membranes (Millipore) at 50 mA overnight. Membranes were blocked in 5% milk in PBS with 0.1% Tween-20 (PBS-T) for 2 h at 4° C., then incubated overnight at 4° C. in PBS-T with the appropriate primary antibody ((α-p24 (Cat: 4121; NIH AIDS Reagent Program), α-Nef (Cat: 3689; NIH AIDS Reagent Program), α-gp120 (Cat: 522; NIH AIDS Reagent Program), α-CD81 (Cat: EXOAB-CD81A-1; SBI), α-VPS4 (Cat: sc-32922; Santa Cruz Biotechnology), α-CHMP6 (Cat: sc-67231; Santa Cruz Biotechnology), α-Actin (ab-49900; Abcam), α-CD63 (Cat: EXOAB-CD63A-1; Systems Biosciences), α-SQSTM1/p62 (Cat: 5114; Cell Signaling Technology), α-MAP LC3 α/β (Cat: sc-398822; Santa Crux Biotechnology), α-Alix (Cat: sc-49268; Santa Cruz Biotechnology), α-ATG12 (Cat: sc-271688; Santa Cruz Biotechnology), α-Beclin 1 (Cat: sc-48341; Santa Cruz Biotechnology)). Membranes were washed with PBS-T and incubated for 2 h with the indicated HRP-conjugated secondary antibody at 4° C. HRP luminescence was activated with Clarity Western ECL Substrate (Bio-Rad) and visualized by the Molecular Imager ChemiDoc Touch system (Bio-Rad).
ImageJ software was used to conduct densitometry analysis on the kinase and western blot images. Background measurements were deducted from each lane to account for exposure, followed by normalization of each lane to each respective Actin measurements. […] Percent changes were calculated by subtracting normalized lane measurements from the normalized control lane.
This is potentially due innate differences in the abundance of these mRNAs. […]

[3] = CBD 10 μM with cART vs cART, 7 days, FIG. 22D lanes 3 vs 5
[4] = 10 μM every day for 5 days, FIG. 16
[5] = CBD 1, 5, 10 μM every day for 5 days

C=C(C)[C@@H]1CCC(C)=C[C@H]1c1c(O)cc(CCCCC)cc1O [CBD, 2-[1R-3-methyl-6R-(1-methylethenyl)-2-cyclohexen-1-yl]-5-pentyl-1,3-benzenediol]
TAR RNA [1, 3]: signification reduction | env RNA [1, 3]: signification reduction | gag RNA [1, 3]: signification reduction | altering viral transcripts in neurospheres ([1]; lower concentrated CBD treatment (5 μM)): low efficacy | reduction in intracellular Nef (densitometry) [2, 4]: 62% | reduction in intracellular Pr55 (densitometry) [2, 4]: 99% | reduction in intracellular p24 (densitometry) [2, 4]: 76% | intracellular CHMP6 (ESCRT-III) [2, 5]: slight increase | intracellular VPS4 [2, 5]: slight increase
